Experiment [1] relates to PKA activity in HMEC-1 cells. In words: PKA activity assay in endothelial cells. Type of experiment: cell-based, human. Particulars: IP-10dp 10 μM. On the procedure:
To further investigate the cAMP activation of PKA, a PKA assay experiment was conducted. As above, HMEC-1 cells were grown in complete growth media then further incubated in 0.5% dialyzed FBS MCDB 131 media for 24 hours. The cells were then stimulated with forskolin ([…]), and/or combinations of VEGF (100 ng/ml), IP-10 (200 ng/ml), and/or IP-10dp (10 μM) for 15, 30 and 60 minutes. The cells were lysed with an ice-cold hypotonic solution (50 mM Tris pH 7.4, 1 mM EDTA, 10 mg/ml aprotinin and 1 mM PMSF). The cells were incubated on ice for 30 minutes then centrifuged to remove the cell membranes. PKA activity was measured using a commercially available cAMP dependent protein kinase kit (Non-Radioactive Detection kit, from Promega Corp., of Madison, Wis.) according to the manufacturer's protocol. Absorbance was read at 570 nm with the solubilization buffer serving as a blank.

In experiment [2] the test system is m-calpain in HMEC-1 cells. In words: Calpain activity by Boc-LM-CMAC cleavage. It counts as cell-based, human. Particulars: IP-10dp 10 μM, VEGF 75 ng/ml, BAPTA/AM pre-incubation. An excerpt: Prior research has also shown that in endothelial cells, the CXCR3-activation of PKA inhibits motility secondary to inhibitory phosphorylation of m-calpain (also known as […]). VEGF induces calpain activity in endothelial cells, and […] (also known as […]) is activated, at least in part, by ERK phosphorylation on serine 50 and in other cells μ-calpain is activated secondary to a calcium flux. In this experiment, the IP-10dp affect on m-calpain is studied by using the membrane permeable synthetic calpain substrate Boc-LM-CMAC. Since the pre-fluorescent substrate Boc-LM-CMAC can be cleaved by both m- and μ-calpain, this experiment used BAPTA/AM, a membrane permeable calcium chelator, to distinguish between m- and μ-calpain activation in cells as this blocks activation of μ-calpain but not m-calpain.
In order to establish whether the IP-10dp inhibition of motility involves this above-described blockade of calpain activation, 8 well chamber slides were coated with 0.1% gelatin for 24 hours at 4° C. The gelatin was removed and HMEC-1 cells were plated at 12,000 cells/well then incubated in 10% FBS-EBM-EC media for 24 hrs. The media was removed and the cells were further incubated for 12 hrs with 0.5% dialyzed FBS-EBM media. All cell cultures were then incubated with either BAPTA AM ([…]), or Calpain inhibitor I (CI-1, […]) at 37° C. for 30 minutes. […]

Experiment [3] relates to VEGF-induced new vessel formation. In words: In vivo Matrigel plug assay, vessel development. The settings on record: mice, day 10. Also on record: species or system C57Bl/6 mice. On the procedure:
To determine whether IP-10dp is able to inhibit vessel growth, an in vivo Matrigel assay was used to establish that IP-10dp is able to inhibit angiogenesis. Vessel development and regression in vivo was determined generally according to the method previously described by Bodnar et al. (see Bodnar et al., 2006, supra). In brief, for vessel development GFR Matrigel supplemented with VEGF165 in the absence or presence of IP-10 or IP-10dp was injected into the groin area of the mice. Ten days post inoculation; the Matrigel plug was removed and stained with Masson Trichrome to visualize endothelial infiltration.
Specifically, Matrigel with VEGF was injected into the groin area near the dorsal midline of 12-month-old C57Bl/6 female mice. In addition to Matrigel plus VEGF, the mice were injected with saline (control), 10 μg of IP-10 or 100 μg of IP-10dp. Two injections were made in each mouse in separate dorsal areas, one control injection and the other with the designated experimental treatment. On day 10, the Matrigel plugs were removed and either paraffin embedded or flash frozen. They were prepared and examined histologically for new vessel development using Masson's trichrome staining. […] This particular result is taken as being indicative that IP-10dp has the ability to inhibit VEGF-induced new vessel formation.

The subject of experiment [4] is VEGF-induced newly formed vessels. In words: In vivo Matrigel plug assay, regression of newly formed vessels. Also on record: species or system C57BL/6J mice. Particulars: mice; injected into plug at days 10 and 12, examined day 17; IP-10 10 μg, IP-10dp 100 μg. The method, then: Further, to verify that IP-10dp is able to cause regression of newly formed vessels in vivo, parallel experiments were conducted on similar mice whereby GFR Matrigel supplemented with VEGF (200 ng/ml) was first injected into both the left and right side groins of mice (establishing a control location and a test location). After 10 days, the left side Matrigel plug was removed (control, n=6) and stained as above for histological examination, with the left side samples being used to establish the extent of new vessel invasion at 10 days. The remaining right side Matrigel plug in the mice was injected with either IP-10 (10 μg) or IP-10dp (100 μg) at days 10 and 12. Day 17, the right side Matrigel plugs were removed and stained for examination as above. FIG. 8D through FIG. 8G are color photographs of tissue samples, showing both 10× and 40× magnifications, taken from laboratory C57BL/6J mice. […]

On to “PESKAIKNLLKAVSKEMSKRSP (IP-10dp; listed as Homo sapiens) [synthetic fragment of IP-10 comprising residues 78-98, the C-terminal α-helical domain]”, for which the “fold increase in PKA assay” value in experiment [1] is 2-3 fold. In addition, the “PKA activity in comparison to VEGF and untreated cells” value in experiment [1] (15, 30 and 60 minutes) is “significant increase in PKA activity”. In addition, in experiment [2], the “VEGF mediated m-calpain activity” value is given as “inhibits VEGF mediated m-calpain activity”. In addition, in experiment [3] (10 μg IP-10 or 100 μg IP-10dp with Matrigel plus VEGF, Masson's trichrome), the “inhibition of VEGF-induced angiogenesis in Matrigel plug” value was “inhibited this angiogenesis”. Also, the “inhibition of VEGF-induced new vessel formation compared with IP-10” value in experiment [3] (100 μg IP-10dp vs 10 μg IP-10) is listed as “more effective than IP-10”. Besides, the “regression of vessels compared to saline control” value in experiment [4] is “significant regression of vessels”.

The values are drawn from US8734775B2, “Chemokine derived peptides that bind with chemokine receptor CXCR3 and uses for chronic wound and angiogenesis inhibition treatments” (University of Pittsburgh, priority 2011, dated 2014).
